Test results as given in patent US20190218504A1, “METHODS OF CULTURING AURANTIOCHYTRIUM USING ACETATE AS AN ORGANIC CARBON SOURCE” (HELIAE DEVELOPMENT LLC, priority 2016, published 2019).
Where two headings read alike, the source gives them in different places.

What was measured:
[1] = tested on: Aurantiochytrium sp. HS399; details: for growth with nitrogen source under an acetic acid pH auxostat system: pH 5.5 or 6.0
[2] = tested on: Aurantiochytrium sp. HS399
Procedure: An experiment was performed to determine if Aurantiochytrium sp. HS399 can grow using acetate as an organic carbon source and ammonia as a nitrogen source. Aurantiochytrium was grown in an acetic acid/pH-auxostat mode in 700 ml bubble column at 27° C. in sterile conditions. The base medium contained: NaCl (12.5 g/L), MgSO4.7H2O (2.5 g/L), KCl (0.5 g/L). CaCl2) (0.1 g/L), KH2PO4 (0.125 g/L) vitamins (0.25 ml/L) and trace metal (1.25 ml/L). Trace and vitamins stocks were prepared according to Ashford, et al. 2000. Lipids 35, 1377-1386. A blend of ammonium (hydroxide and acetic acid 1:5 w/w) with slightly higher molar ratio of acetic acid (1:1.1) was prepared with the aim maintain residual acetate present until the end of the pH auxostat. The pH auxostat was set to pH 6.6. The ammonium acetate blend was added to the treatments in order to match the following concentrations: 1×: 1.07 g/L NH4, 5.68 g/L acetic acid, 3×: 3.21 g/L NH4, 17.04 g/L acetic acid, 5×: 5.35 g/L NH4, 28.40 g/L acetic acid, 7×: 7.49 g/L NH4, 39.76 g/L acetic acid.

[3] = tested on: Aurantiochytrium sp. HS399; details: FIG. 1; pH set point 5.5 and 7
Procedure: An experiment was performed to determine the ability of Aurantiochytrium to grow on combination of acetate and another organic carbon source in axenic and contaminated culture conditions. […] The initial culture medium was supplemented with 30 g/L glycerol and 0.5 g/L acetate. […] Cell dry weights were measured daily.

[4] = tested on: Aurantiochytrium sp. HS399; details: cultures with a pH of 5 and above
Procedure: Aurantiochytrium was grown in an acetic acid/pH-auxostat mode in 700 ml bubble column at 27° C. in sterile conditions. […] Trace and vitamins stocks were prepared according to Ashford, et al. 2000.

[5] = tested on: Aurantiochytrium sp. HS399; details: Table 19
Procedure: (§1) An experiment was performed to determine the effectiveness of growing Aurantiochytrium with combination of acetate and a non-acetate organic carbon sources, in this case glycerol. Aurantiochytrium sp. HS399 was grown in a 100 L open pond. The base medium contained: sodium acetate (1 g/L), glycerol (30 g/L) monosodium glutamate monohydrate (2.5 g/L) NaCl (12.5 g/L), MgSO4.7H2O (2.5 g/L), KCl (0.5 g/L), CaCl2 (0.1 g/L), KH2PO4 (0.5 g/L), vitamins (1 ml/L), and trace metal (5 ml/L). Trace and vitamins stocks were prepared according to Ashford, et al. 2000. Lipids 35, 1377-1386. The ponds were inoculated at 1 v/v using exponentially growing cultures. Aeration was maintained at 0.5 vvm using a porous hose. In one treatment the pH was controlled at a set point of pH 7 with hydrochloric acid, and no acetic acid was supplied (i.e., glycerol only). In another treatment acetic acid was supplied by a pH auxostat system at a set point of 5.5 in addition to the glycerol. The impact on microalgae growth and contamination was analyzed by measuring dry weights (filtration), residual acetate concentration in the culture medium (HPLC), and total aerobic bacteria counts (petrifilms) daily.

aerobic bacteria = details: throughout the batch, Table 20
Procedure: as §1

Which “Cell Dry Weight” value ([1]; pH 5.5, 2.5 g/L, time 1 d) does the source give for `N[C@@H](CCC(=O)O)C(=O)[O-].[Na+]` [MSG, monosodium glutamate] here?
Its value is 2.6 ± 0.0 g/L.

What about the “Cell Dry Weight” value ([1]; pH 5.5, 2.5 g/L, time 2 d) of the same molecule?
The value was 5.2 ± 0.0 g/L.

And the “Cell Dry Weight” value ([1]; pH 5.5, 2.5 g/L, time 3 d)?
Its value is 7.5 ± 0.2 g/L.

What about the “Cell Dry Weight” value ([1]; pH 5.5, 2.5 g/L, time 4 d) of the same molecule?
Its value is 8.8 ± 0.4 g/L.

What about the “Cell Dry Weight” value ([1]; pH 5.5, 2.5 g/L, time 5 d) of the same molecule?
The value was 10.4 ± 0.4 g/L.

And the “Cell Dry Weight” value ([1]; pH 5.5, 2.5 g/L, time 6 d)?
The value was 11.4 ± 0.3 g/L.

And the “growth with nitrogen source under an acetic acid pH auxostat system” value [1]?
Its value is “could grow”.

What about the “Cell Dry Weight” value ([1]; pH 6.0, 10 g/L, time 1 d) of the same molecule?
Its value is 3.6 ± 0.3 g/L.

What about the “Cell Dry Weight” value ([1]; pH 6.0, 10 g/L, time 2 d) of the same molecule?
The value was 6.1 ± 0.1 g/L.

What about the “Cell Dry Weight” value ([1]; pH 6.0, 10 g/L, time 4 d) of the same molecule?
The value was 7.9 ± 2.0 g/L.

And the “Cell Dry Weight” value ([1]; pH 6.0, 10 g/L, time 6 d)?
Its value is 11.9 ± 2.6 g/L.

`CC(=O)O.N` [NH4AoC, ammonium acetate] was tested. Which “Cell Dry Weight” value ([1]; pH 5.5, 1.1 g/L, time 0 d) did it give?
The value was 0.2 ± 0.0 g/L.

And the “Cell Dry Weight” value ([1]; pH 5.5, 1.1 g/L, time 1 d)?
Its value is 2.5 ± 0.1 g/L.

What about the “Cell Dry Weight” value ([1]; pH 5.5, 1.1 g/L, time 2 d) of the same molecule?
Its value is 4.9 ± 0.1 g/L.

What about the “Cell Dry Weight” value ([1]; pH 5.5, 1.1 g/L, time 3 d) of the same molecule?
Its value is 7.5 ± 0.3 g/L.

And the “Cell Dry Weight” value ([1]; pH 5.5, 1.1 g/L, time 4 d)?
Its value is 8.9 ± 0.2 g/L.

And the “Cell Dry Weight” value ([1]; pH 5.5, 1.1 g/L, time 5 d)?
Its value is 10.7 ± 0.3 g/L.

And the “Cell Dry Weight” value ([1]; pH 5.5, 1.1 g/L, time 6 d)?
The value was 11.8 ± 0.1 g/L.

What about the “growth with nitrogen source under an acetic acid pH auxostat system” value [1] of the same molecule?
The value was “could grow”.

And the “Cell Dry Weight” value ([1]; pH 6.0, 4.5 g/L, time 0 d)?
Its value is 0.2 ± 0.0 g/L.

And the “Cell Dry Weight” value ([1]; pH 6.0, 4.5 g/L, time 1 d)?
The value was 2.6 ± 0.1 g/L.

What about the “Cell Dry Weight” value ([1]; pH 6.0, 4.5 g/L, time 2 d) of the same molecule?
Its value is 5.4 ± 0.4 g/L.

What about the “Cell Dry Weight” value ([1]; pH 6.0, 4.5 g/L, time 3 d) of the same molecule?
The value was 7.8 ± 0.1 g/L.

And the “Cell Dry Weight” value ([1]; pH 6.0, 4.5 g/L, time 4 d)?
Its value is 9.8 ± 0.5 g/L.

And the “Cell Dry Weight” value ([1]; pH 6.0, 4.5 g/L, time 5 d)?
The value was 11.9 ± 0.2 g/L.

What about the “Cell Dry Weight” value ([1]; pH 6.0, 4.5 g/L, time 6 d) of the same molecule?
The value was 13.8 ± 0.2 g/L.

And the “Cell Dry Weight” value ([2]; 1X (1.07 g/L NH4, 5.68 g/L acetic acid), time 0 d)?
The value was 0.6 ± 0.0 g/L.

What about the “Cell Dry Weight” value ([2]; 1X, time 1 d) of the same molecule?
Its value is 2.2 ± 0.0 g/L.

And the “Cell Dry Weight” value ([2]; 1X, time 2 d)?
The value was 4.8 ± 0.0 g/L.

What about the “Cell Dry Weight” value ([2]; 1X, time 3 d) of the same molecule?
The value was 7.0 ± 0.1 g/L.

What about the “Cell Dry Weight” value ([2]; 1X, time 4 d) of the same molecule?
Its value is 7.9 ± 0.1 g/L.

And the “Cell Dry Weight” value ([2]; 1X, time 5 d)?
Its value is 8.7 ± 0.2 g/L.

What about the “Cell Dry Weight” value ([2]; 1X, time 6 d) of the same molecule?
Its value is 9.4 ± 0.1 g/L.

What about the “growth on ammonium acetate blends” value ([2]; 1× and 3× blends, pH 6.6) of the same molecule?
Its value is “able to grow”.

And the “Cell Dry Weight” value ([2]; 3X (3.21 g/L NH4, 17.04 g/L acetic acid), time 0 d)?
Its value is 0.6 ± 0.0 g/L.

What about the “Cell Dry Weight” value ([2]; 3X, time 1 d) of the same molecule?
Its value is 1.7 ± 0.1 g/L.

What about the “Cell Dry Weight” value ([2]; 3X, time 2 d) of the same molecule?
Its value is 3.6 ± 0.3 g/L.

What about the “Cell Dry Weight” value ([2]; 3X, time 3 d) of the same molecule?
Its value is 5.2 ± 0.1 g/L.

What about the “Cell Dry Weight” value ([2]; 3X, time 4 d) of the same molecule?
The value was 6.5 ± 0.3 g/L.

And the “Cell Dry Weight” value ([2]; 3X, time 5 d)?
The value was 6.8 ± 0.3 g/L.

What about the “Cell Dry Weight” value ([2]; 3X, time 6 d) of the same molecule?
The value was 7.5 ± 0.1 g/L.

What about the “Cell Dry Weight” value ([2]; 5X (5.35 g/L NH4, 28.40 g/L acetic acid), time 0 d) of the same molecule?
Its value is 0.6 ± 0.0 g/L.

And the “Cell Dry Weight” value ([2]; 5X, time 1 d)?
Its value is 0.8 ± 0.2 g/L.

What about the “Cell Dry Weight” value ([2]; 5X, time 2 d) of the same molecule?
The value was 0.7 ± 0.1 g/L.

And the “Cell Dry Weight” value ([2]; 5X, time 3 d)?
The value was 0.7 ± 0.0 g/L.

What about the “Cell Dry Weight” value ([2]; 5X, time 4 d) of the same molecule?
Its value is 0.8 ± 0.1 g/L.

And the “Cell Dry Weight” value ([2]; 5X, time 5 d)?
Its value is 0.3 ± 0.0 g/L.

And the “Cell Dry Weight” value ([2]; 5X, time 6 d)?
Its value is 0.4 ± 0.0 g/L.

What about the “Cell Dry Weight” value ([2]; 7X (7.49 g/L NH4, 39.76 g/L acetic acid), time 0 d) of the same molecule?
Its value is 0.6 ± 0.0 g/L.

And the “Cell Dry Weight” value ([2]; 7X, time 1 d)?
The value was 1.0 ± 0.2 g/L.

What about the “Cell Dry Weight” value ([2]; 7X, time 2 d) of the same molecule?
Its value is 0.6 ± 0.1 g/L.

What about the “Cell Dry Weight” value ([2]; 7X, time 3 d) of the same molecule?
Its value is 0.7 ± 0.0 g/L.

What about the “Cell Dry Weight” value ([2]; 7X, time 4 d) of the same molecule?
The value was 0.8 ± 0.1 g/L.

And the “Cell Dry Weight” value ([2]; 7X, time 5 d)?
Its value is 0.3 ± 0.0 g/L.

And the “Cell Dry Weight” value ([2]; 7X, time 6 d)?
Its value is 0.6 ± 0.1 g/L.

For `CC(=O)O` [Acetic Acid, acetic acid], which “growth in axenic and contaminated cultures versus cultures not receiving acetic acid” value [3] is on record?
Its value is “comparable growth”.

And the “growth using acetate as an organic carbon source” value [4]?
The value was “able to grow”.

What about the “growth compared to the other culture (glycerol only, HCl)” value [5] of the same molecule?
The value was “comparable growth”.

And the “decrease of aerobic bacteria counts as compared to the other treatment” value (aerobic bacteria)?
The value was ≥ 3 log.
